Legend:
B16.F10 tumors = test: In vivo tumor growth, survival and regression in the B16.F10 melanoma model with anti-PD-1 therapy; set-up: species or system C57BL/6J mice
Description: Groups of 8-week old C57BL/6J female mice were inoculated with 1×10^5 freshly cultured B16.F10 tumor cells subcutaneously in the left flank. Mice were monitored for the development of tumors and when palpable were randomized into groups. Mice received αPD-1 (clone RMP1-14; BioXCell) or control rat IgG (Sigma) at 200 μg/day intraperitoneally in a volume of 200 μl PBS twice per week for 3 weeks. Mice received daily TTI-4242 or TTI-3114 at 30 mg/kg/day or vehicle only for 5 consecutive days in a total volume of 100 μL. Tumors were measured with digital calipers and the tumor volume calculated as (length×width^2)/2. Mice were euthanized when the tumor volume exceeded 1500 mm^3, developed ascites or necrosis, or when mice became lethargic.
(§1) Differences in tumor growth curves were evaluated by linear mixed models for longitudinal analysis and Kaplan-Meier survival curves were evaluated by log rank test. Differences in calreticulin expression were determined by two-way ANOVA with Bonferroni post-test. All data were analyzed using Graphpad Prism (version 7) or SAS (version 9.4) software.

B16.F10 melanoma cells = test: Surface calreticulin expression (immunogenic cell death) by flow cytometry; assay type: cell-based, mouse (C57BL/6); details: 24 hours of treatment
Description: B16.F10 melanoma cells were plated at 1.5-2.0×10^5 cells per well in 24-well plates in RPMI-1640 medium containing standard supplements and 10% fetal bovine serum (FBS) and incubated overnight at 37° C., 5% CO2. Compounds solubilized in dimethyl sulfoxide (DMSO) were added at the indicated concentrations and incubated for a further 24 hours at 37° C., 5% CO2. Control wells were treated with similar dilutions of DMSO. Cells were trypsinized and washed with FACS buffer (2% FBS+0.1% NaN3 in PBS) and seeded at 1-2×10^5 per well in 96-well round-bottom plates. Cells were stained with rabbit anti-calreticulin polyclonal antibody (1:100, Abcam ab2907) in FACS buffer for 30 minutes at 4° C. Following two washes, cells were labeled with goat anti-rabbit Alexa Fluor 488 (1:500, Thermo Fisher A11070) in FACS buffer for 30 minutes at 4° C. Cells were washed twice and labeled with 7-aminoactinomyosin D in order to exclude non-viable cells. Samples were immediately run on a BD LSR Fortessa flow cytometer and the data analyzed using FlowJo software.
as §1

[1] = Tolerability / maximum tolerated dosage; details: in vivo
Description: TTI-7106 is used for these experiments near the maximum tolerated dosage (MTD) of 40 mg/kg. […] TTI-7106 is authenticated in batches based on the NMR spectroscopy and mass spectrometry. All experiments are carried out on equal groups of male and female mice.

| SMILES | tumors / mice showing initial tumor regression (B16.F10 tumors; during the period of schweinfurthin administration) | tumor growth (rate / delay) (B16.F10 tumors; established s.c. B16.F10 tumors, schweinfurthin 30 mg/kg/day for 5 consecutive days, αPD-1 200 μg i.p. twice per week for 3 weeks) | concentration at which high levels of surface calreticulin expression are induced (B16.F10 melanoma cells) | induction of surface calreticulin (B16.F10 melanoma cells; flow cytometry) | maximum tolerated dosage (MTD) [1] | toxicity ([1]; 30 mg/kg) | MTD ([1]; both sexes, mouse) |
| --- | --- | --- | --- | --- | --- | --- | --- |
| COc1cc(/C=C/c2cc(O)c3c(c2)C[C@@H]2C(C)(C)[C@H](O)CC[C@@]2(C)O3)cc2c1ccn2C [TTI-4242] | 50% | neither αPD-1 alone (FIG. 2C) nor TTI-4242 alone (FIG. 2D) impacted tumor growth rate | below 2 nM | induced surface calreticulin | nearly identical MTD | low toxicity |  |
| COc1cc(/C=C/c2cc(O)c3c(c2)C[C@@H]2C(C)(C)[C@H](O)CC[C@@]2(C)O3)cc(O)c1/C=C/c1c(C)noc1C [TTI-7106] |  |  |  |  |  |  | 40 mg/kg |

— US12427133B2, “Combination therapies comprising schweinfurthin compounds for treating cancer” (The Penn State Research Foundation, priority 2018, dated 2025)
